Laboratory results published in ChEMBL document CHEMBL3098018, “Synthesis of licochalcone analogues with increased anti-inflammatory activity” (Bioorg Med Chem Lett, 2014).

Key:
[1] = Antiinflammatory activity in RBL2H3 cells assessed as inhibition of degranulation; assay type: functional, cell-based; conditions: Rattus norvegicus, RBL-2H3
RAW264.7 [2] = assay: Cytotoxicity against mouse RAW264.7 cells assessed as cell viability at 20 uM after 24 hrs by MTS assay; assay type: cell-based; conditions: raw264.7, 24 h
RAW264.7 [3] = assay: Cytotoxicity against mouse RAW264.7 cells assessed as cell viability at 20 uM after 24 hrs by MTS assay; conditions: raw264.7, 24 h
RAW264.7 [4] = assay: Antiinflammatory activity in mouse RAW264.7 cells assessed as inhibition of LPS-stimulated nitric oxide production at 2 uM after 18 hrs by Griess assay relative to control; assay type: functional; conditions: RAW264.7, 18 h
RAW264.7 [5] = assay: Antiinflammatory activity in mouse RAW264.7 cells assessed as inhibition of LPS-stimulated nitric oxide production after 18 hrs by Griess assay; assay type: functional, cell-based; conditions: RAW264.7, 18 h
RAW264.7 [6] = assay: Antiinflammatory activity in mouse RAW264.7 cells assessed as inhibition of LPS-stimulated nitric oxide production at 20 uM after 18 hrs by Griess assay relative to control; assay type: functional; conditions: RAW264.7, 18 h

IC50 [1]	IC50 (RAW264.7 [5])	SMILES	Activity (RAW264.7 [2])	Activity (RAW264.7 [3])	inhibition at 2 µM (RAW264.7 [4])	inhibition at 20 µM (RAW264.7 [6])
> 30 µM	–	O=C(/C=C/c1ccc(O)cc1)c1ccc(O)cc1O [ISOLIQUIRITIGENIN]	–	–	–	–
–	2.37 µM	C=CC(C)(C)c1cc(C(=O)/C=C/c2ccc(O)c(O)c2OC)ccc1O	Toxic	Toxic	75.9%	96.1%
–	4.72 µM	COc1c(/C=C/C(=O)c2ccc(O)cc2O)ccc(O)c1O	Non-toxic	–	71.1%	96.5%
17 µM	–	C=CC(C)(C)c1cc(/C=C/C(=O)c2ccc(O)cc2)c(OC)cc1O [LICOAGROCHACONE A]	–	–	–	–
> 30 µM	9.94 µM	COc1c(/C=C/C(=O)c2ccc(O)cc2)ccc(O)c1O	Non-toxic	–	17.2%	69.6%
–	10.1 µM	COc1c(/C=C/C(=O)c2ccc(O)c(O)c2)ccc(O)c1O	Non-toxic	–	-6%	92.5%
24 µM	–	COc1c(/C=C/C(=O)c2ccc(O)cc2)ccc(O)c1CC=C(C)C	–	–	–	–
–	4.95 µM	C=C(C)C(C)c1cc(C(=O)/C=C/c2ccc(O)c(O)c2OC)ccc1O (stereo not drawn)	Toxic	Toxic	56.5%	94.3%
21 µM	4.85 µM	COc1c(/C=C/C(=O)c2ccc(O)c(CC=C(C)C)c2)ccc(O)c1O [LICOCHALCONE D]	Toxic	Toxic	57.8%	95.4%
> 30 µM	–	COc1cc(O)ccc1/C=C/C(=O)c1ccc(O)cc1 [ECHINATIN]	–	–	–	–
